In US9662338B2, “Formulations of viloxazine” (Supernus Pharmaceuticals, Inc., priority 2012, dated 2017):

Details: steady state plasma levels at both 150 mg and 300 mg total daily dose; IR capsules TID
Protocol: A randomized, double blind, multicenter, placebo controlled clinical study was conducted to evaluate the efficacy of viloxazine in adults with ADHD. […] Subjects not tolerating the 300 mg/day dose were allowed at any time of the treatment phase to down titrate to 1 capsule TID for a total daily dose of 150 mg viloxazine base. […] Plasma samples were obtained up to six hours following dosing.

CCOc1ccccc1OCC1CNCCO1 (racemic) [viloxazine, (RS)-2-[(2-ethoxyphenoxy)methyl]morpholine]
clinical efficacy in adults with ADHD: demonstrated clinical efficacy
